Results on 32 molecules are retold here after patent publication US20230086702A1, “SUBSTITUTED 2-AMINO-PYRAZOLYL-[1,2,4]TRIAZOLO[1,5A]PYRIDINE DERIVATIVES AND USE THEREOF” (The Johns Hopkins University, priority 2019, published 2023).

The target in test [1] is T1, DLK (Homo sapiens, UniProt Q12852).
T1 construct: 10 nM DLK, catalytic domain, Carna Biosiences; purchased Carna Biosciences ('Carna Biosiences' [sic])
T1 sequence (Q12852 125-366 limits assumed): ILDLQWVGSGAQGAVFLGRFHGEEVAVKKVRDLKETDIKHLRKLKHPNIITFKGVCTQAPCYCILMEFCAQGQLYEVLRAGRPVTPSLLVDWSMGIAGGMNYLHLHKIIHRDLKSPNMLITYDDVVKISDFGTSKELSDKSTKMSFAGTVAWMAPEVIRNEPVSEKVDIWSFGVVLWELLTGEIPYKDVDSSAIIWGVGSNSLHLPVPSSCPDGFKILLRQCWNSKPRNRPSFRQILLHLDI
Description: DLK biochemical assay (TR-FRET, MKK7 phosphorylation). In outline:
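DLK catalytic domain (10 nM) phosphorylates His-MKK7 (15 nM) at 60 μM ATP for 90 min at RT in pH 7.5 Hepes buffer (final concentrations). Phospho-T275/S277 is detected by TR-FRET (Eu anti-phospho donor, XL665 anti-His acceptor) after 16 h at 37° C (1536 format) or 4° C (384 format).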

In test [2] the target is T2, LZK (Homo sapiens, UniProt O43283).
T2 construct: 10 nM LZK, catalytic domain, Carna Biosiences in assay buffer; purchased Carna Biosciences ('Carna Biosiences' [sic])
T2 sequence (O43283 168-409 limits assumed): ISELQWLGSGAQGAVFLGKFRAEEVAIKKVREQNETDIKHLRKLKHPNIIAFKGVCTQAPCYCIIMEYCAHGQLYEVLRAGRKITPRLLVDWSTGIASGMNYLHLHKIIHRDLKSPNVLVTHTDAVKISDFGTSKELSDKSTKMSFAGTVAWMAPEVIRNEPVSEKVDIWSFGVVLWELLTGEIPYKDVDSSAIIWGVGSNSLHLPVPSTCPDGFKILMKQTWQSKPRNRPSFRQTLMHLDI
The test is described as follows: LZK biochemical assay (TR-FRET, MKK7 phosphorylation). In outline: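 LZK catalytic domain (10 nM) phosphorylates His-MKK7 (15 nM) with 15 µM ATP, all final, for 90 min at RT in HEPES buffer pH 7.5 with MgCl2. Phospho-T275/S277 detected by TR-FRET (Eu anti-phospho donor, XL665 anti-His acceptor) after 16 h at 32 °C in EDTA stop buffer. Inhibition lowers the 665/Eu ratio.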
On the technique in general: Time-resolved FRET reads energy transfer from a long-lived donor to a nearby acceptor.

Structures are written as SMILES.

`Nc1nc2cc(-c3cnn(Cc4ccccc4)c3)cc(-c3cnn(C4CCOC4)c3)n2n1` (stereo not shown) [II-125]: the IC50 worked out at 17 nM in test [1] and 160 nM in test [2].
For the molecule `Nc1nc2cc(-c3cnn(Cc4ccccc4)c3)cc(-c3cnn(C4CCOCC4)c3)n2n1` [II-126, 7-(1-Benzyl-1H-pyrazol-4-yl)-5-[1-(tetrahydro-2H-pyran-4-yl)-1H-pyrazol-4-yl][1,2,4]triazolo[1,5-a]pyridin-2-amine], the IC50 in test [1] was 60 nM; in test [2], 220 nM.
With `CC[C@@H](c1ccccc1)n1cc(-c2cc(-c3cnn(CC(F)(F)F)c3)n3nc(N)nc3c2)cn1` [II-127, 7-{1-[(1S)-1-Phenylpropyl]-1H-pyrazol-4-yl}-5-[1-(2,2,2-trifluoroethyl)-1H-pyrazol-4-yl][1,2,4]triazolo[1,5-a]pyridin-2-amine], the figures for the IC50 in test [1] and in test [2] were 8.4 nM and 99 nM, respectively.
Consider `CC[C@@H](c1ccc(F)cc1)n1cc(-c2cc(-c3cnn(CC(F)(F)F)c3)n3nc(N)nc3c2)cn1` [II-128], for which the IC50 was found to be 15 nM in test [1] and 160 nM in test [2].
For the molecule `CCC(c1ccc(C(F)(F)F)cc1)n1cc(-c2cc(-c3cnn(CC(F)(F)F)c3)n3nc(N)nc3c2)cn1` (stereo not shown) [II-129], the IC50 in test [1] came to 69 nM; in test [2], 170 nM.
Consider `CCC(c1ccc(C(F)(F)F)cc1)n1cc(-c2cc(-c3cnn(C4CCCC4)c3)n3nc(N)nc3c2)cn1` (stereo not shown) [II-132], for which the half-inhibitory concentration (IC50) in test [1] was 71 nM; in test [2], 120 nM.
The like results for `Nc1nc2cc(-c3cnn(Cc4ccnc(OC(F)(F)F)c4)c3)cc(-c3cnn(CC(F)(F)F)c3)n2n1` [II-135, 5-[1-(2,2,2-Trifluoroethyl)-1H-pyrazol-4-yl]-7-(1-{[2-(trifluoromethoxy)pyridin-4-yl]methyl}-1H-pyrazol-4-yl)[1,2,4]triazolo[1,5-a]pyridin-2-amine] were, in that order, 19 nM and 70 nM.
For `COc1cc(C(C(C)C)n2cc(-c3cc(-c4cnn(CC(F)(F)F)c4)n4nc(N)nc4c3)cn2)ccn1` (stereo not shown) [II-136], the IC50 is 3.4 nM in test [1] and 48 nM in test [2].
Taken in the same sequence, the figures for `COc1cc([C@H](C(C)C)n2cc(-c3cc(-c4cnn(CC(F)(F)F)c4)n4nc(N)nc4c3)cn2)ccn1` [II-138] were 1.7 nM and 29 nM.
On to `CC(C)C(c1ccc(C(F)(F)F)nc1)n1cc(-c2cc(-c3cnn(CC(F)(F)F)c3)n3nc(N)nc3c2)cn1` (stereo not shown) [II-139], for which the IC50 in test [1] is 11 nM; in test [2], 27 nM.
Take `CC(C)[C@@H](c1ccc(C(F)(F)F)nc1)n1cc(-c2cc(-c3cnn(CC(F)(F)F)c3)n3nc(N)nc3c2)cn1` [II-140]: the IC50 in test [1] amounted to 3 nM; in test [2] it was 13 nM.
Regarding `CC(C)C(c1ccc(C(F)(F)F)nc1)n1cc(-c2cc(-c3cnn(CC4CC4(F)F)c3)n3nc(N)nc3c2)cn1` (stereo not shown) [II-142], the IC50 stood at 8.4 nM in test [1] and 12 nM in test [2].
As to `CC(C)C(c1ccc(C(F)(F)F)nc1)n1cc(-c2cc(-c3cnn(C4CCCC4)c3)n3nc(N)nc3c2)cn1` (stereo not shown) [II-143], the IC50 came to 2.5 nM in test [1] and 15 nM in test [2].
Take `CC(C)[C@@H](c1ccc(C(F)(F)F)nc1)n1cc(-c2cc(-c3cnn(C4CCCC4)c3)n3nc(N)nc3c2)cn1` [II-145]: the half-inhibitory concentration (IC50) was 3.3 nM in test [1] and 9.9 nM in test [2].
Taken in the same sequence, the figures for `Nc1nc2cc(-c3cnn(C(c4ccccc4)C4CCOCC4)c3)cc(-c3cnn(CC(F)(F)F)c3)n2n1` (stereo not shown) [II-146] were 3.6 nM and 200 nM.
On to `Nc1nc2cc(-c3cnn(C(c4ccc(C(F)(F)F)nc4)C4CCOCC4)c3)cc(-c3cnn(CC(F)(F)F)c3)n2n1` (stereo not shown) [II-149], for which the IC50 in test [1] came out at 2.9 nM; in test [2], 4.7 nM.
As for `Nc1nc2cc(-c3cnn(C(c4ccccc4)C4CCNCC4)c3)cc(-c3cnn(CC(F)(F)F)c3)n2n1` (stereo not shown) [II-152], the IC50 in test [1] came out at 1.4 nM; in test [2], 16 nM.
The like results for `Nc1nc2c(-c3ccc(=O)n(C(F)F)c3)cc(-c3cnn(C(c4ccc(C(F)(F)F)nc4)C4CCOCC4)c3)cn2n1` (stereo not shown) [II-153] were, in that order, 1.4 nM and 3.5 nM.
Take `Nc1nc2c(-c3ccc(=O)n(CC(F)F)c3)cc(-c3cnn(C(c4ccc(C(F)(F)F)nc4)C4CCOCC4)c3)cn2n1` (stereo not shown) [II-156]: the concentration for half-maximal inhibition (IC50) worked out at 1.1 nM in test [1] and 3.3 nM in test [2].
Regarding `CC[C@@H](c1ccc(C(F)(F)F)nc1)n1cc(-c2cc(-c3ccc(=O)n(CC(F)(F)F)c3)c3nc(N)nn3c2)cn1` [II-159, 5-[2-Amino-6-(1-{(1S)-1-[6-(trifluoromethyl)pyridin-3-yl]propyl}-1H-pyrazol-4-yl)[1,2,4]triazolo[1,5-a]pyridin-8-yl]-1-(2,2,2-trifluoroethyl)pyridin-2(1H)-one], the figures for the IC50 in test [1] and in test [2] were 2.4 nM and 6.2 nM, respectively.
`Nc1nc2c(-c3ccc(=O)n(CC(F)(F)F)c3)cc(-c3cnn(C(c4ccc(C(F)(F)F)nc4)C4CCOCC4)c3)cn2n1` (stereo not shown) [II-160]: the IC50 in test [1] came to 1.5 nM; in test [2] it was 5.9 nM.
In the case of `Nc1nc2c(-c3ccc(=O)n(CC(F)(F)F)c3)cc(-c3cnn([C@H](c4ccc(C(F)(F)F)nc4)C4CCOCC4)c3)cn2n1` [II-162], the IC50 worked out at 0.8 nM in test [1] and 2 nM in test [2].
Taken in the same sequence, the figures for `CCC(c1ccc(OC(F)(F)F)nc1)n1cc(-c2cc(-c3ccc(=O)n(CC(F)(F)F)c3)c3nc(N)nn3c2)cn1` (stereo not shown) [II-163] were 4.9 nM and 25 nM.
As to `Nc1nc2c(-c3cn(CC(F)(F)F)c(=O)cn3)cc(-c3cnn(C(c4ccc(C(F)(F)F)nc4)C4CCOCC4)c3)cn2n1` (stereo not shown) [II-166], the IC50 in test [1] was determined as 4 nM; in test [2], 27 nM.
For `CCC(c1ccc(C(F)(F)F)nc1)n1cc(-c2cc(-c3ccn(C)c(=O)c3)c3nc(N)nn3c2)cn1` (stereo not shown) [II-169], the IC50 was 20 nM in test [1] and 60 nM in test [2].
Taken in the same sequence, the figures for `Nc1nc2c(-c3ccn(CC(F)F)c(=O)c3)cc(-c3cnn(C(c4ccc(C(F)(F)F)nc4)C4CCOCC4)c3)cn2n1` (stereo not shown) [II-172] were 2.2 nM and 11 nM.
Regarding `Nc1nc2c(-c3ccn(CC(F)(F)F)c(=O)c3)cc(-c3cnn(C(c4ccc(C(F)(F)F)nc4)C4CCOCC4)c3)cn2n1` (stereo not shown) [II-175], the IC50 is 2.7 nM in test [1] and 13 nM in test [2].
Taken in the same sequence, the figures for `CC[C@@H](c1ccccc1)n1cc(-c2cc(-c3ccc(=O)[nH]c3)n3nc(N)nc3c2)cn1` [II-178, 5-(2-Amino-7-{1-[(1S)-1-phenylpropyl]-1H-pyrazol-4-yl}[1,2,4]triazolo[1,5-a]pyridin-5-yl)pyridin-2(1H)-one] were 15 nM and 74 nM.
For `CCC(c1ccc(C(F)(F)F)nc1)n1cc(-c2cc(-c3ccc(=O)n(C(F)F)c3)n3nc(N)nc3c2)cn1` (stereo not shown) [II-179], the IC50 in test [1] amounted to 12 nM; in test [2], 8 nM.
For `Nc1nc2cc(-c3cnn(C(c4ccc(C(F)(F)F)nc4)C4CCOCC4)c3)cc(-c3ccc(=O)n(C(F)F)c3)n2n1` (stereo not shown) [II-182], the results for the IC50 in test [1] and in test [2] were 4 nM and 6.5 nM, respectively.
With `Nc1nc2cc(-c3cnn(C(c4ccc(C(F)(F)F)nc4)C4CCOCC4)c3)cc(-c3ccc(=O)n(CC(F)F)c3)n2n1` (stereo not shown) [II-185], the results for the IC50 in test [1] and in test [2] were 1.3 nM and 2 nM, respectively.
With `CCC(c1ccc(C(F)(F)F)nc1)n1cc(-c2cc(-c3ccc(=O)n(CC(F)(F)F)c3)n3nc(N)nc3c2)cn1` (stereo not shown) [II-188], the IC50 in test [1] turned out to be 7.1 nM; in test [2], 10 nM.

Broadly, the IC50 is the concentration that gives 50% inhibition.
